Columns and labels:
[1] = Solubility constant in aqueous solution (Kps)
Staphylococcus aureus = conditions: Cu^+ ions; cited from earlier work
Subtilis bacteria = conditions: Cu^+ ions; cited from earlier work

Compound	Group (classification according to Kps value) [1]	MIC value for copper (Staphylococcus aureus) [µM]	MIC value for copper (Subtilis bacteria) [µM]
[OH][Cu][OH] [Copper (II)Hydroxide]	C (Group C: salts with a Kps within a range that goes from a value greater than or equal to 1*10^−20 until a value equal to or less than 9*10^−16.)	–	–
[Cu] [copper]	–	0.35	0.04
Copper (I)Hydroxide	B (Group B: salts with a Kps within a range that goes from a value greater than 9*10^−16 until a value equal to or less than 9*10^−11.)	–	–
Copper(I) Oxide	B (Group B: salts with a Kps within a range that goes from a value greater than 9*10^−16 until a value equal to or less than 9*10^−11.)	–	–
Copper(I)Phthalocyanine	B (Group B: salts with a Kps within a range that goes from a value greater than 9*10^−16 until a value equal to or less than 9*10^−11.)	–	–

From patent publication US9808014B2, “Active-powder biocidal composition comprising at least one copper salt and at least one zinc salt and the method for the production thereof” (Textil Copper Andino S.A. [CL/CL], priority 2011, dated 2017)
